IC50 data for 25 compounds are collected here from ChEMBL document CHEMBL1129758, “Rapid synthesis of novel dipeptide inhibitors of human collagenase and gelatinase using solid phase chemistry” (Bioorg Med Chem Lett, 1996).

Where a name gives a salt, the structure may show the parent alone. *1 amine or outer side, *2 acyl side, *3 side chain or, on linkers, in order; H or OH if unused. Where a SMILES comes first, the peptide text is derived from it. [ ]: non-standard residue; d: D form. The star is where a group is joined. Hydrocinnamoyl = O=C(CCc1ccccc1)*; 3Pal = N[C@@H](Cc1cccnc1)C(=O)O; 2Thi = N[C@@H](Cc1cccs1)C(=O)O; CO = O=C([*:1])[*:2]; Tfa = O=C(C(F)(F)F)*; NHPh = c1ccc(N*)cc1

One assay deals with T1, Interstitial collagenase (Homo sapiens, UniProt P03956).
T1 sequence (P03956 whole entry): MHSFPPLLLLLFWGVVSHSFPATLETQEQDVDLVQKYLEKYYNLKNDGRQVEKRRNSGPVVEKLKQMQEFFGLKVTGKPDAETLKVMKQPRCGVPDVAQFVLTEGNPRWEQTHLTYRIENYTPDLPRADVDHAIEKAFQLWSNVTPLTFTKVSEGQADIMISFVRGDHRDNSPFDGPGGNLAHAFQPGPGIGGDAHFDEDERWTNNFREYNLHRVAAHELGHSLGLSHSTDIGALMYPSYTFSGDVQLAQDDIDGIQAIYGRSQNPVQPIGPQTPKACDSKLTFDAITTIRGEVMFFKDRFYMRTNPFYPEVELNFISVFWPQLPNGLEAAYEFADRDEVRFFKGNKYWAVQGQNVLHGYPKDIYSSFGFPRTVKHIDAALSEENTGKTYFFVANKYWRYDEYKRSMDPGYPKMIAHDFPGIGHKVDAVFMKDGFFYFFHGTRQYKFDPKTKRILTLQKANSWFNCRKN
The experiment in a line: Inhibitory activity against human fibroblast collagenase (MMP-1).

Assay [1] deals with Matrix metalloproteinase-9 (Homo sapiens, UniProt P14780). Description: Compound was tested for its inhibitory activity against 92 kD gelatinase (MMP-9).
Chain of Matrix metalloproteinase-9 (P14780 whole entry): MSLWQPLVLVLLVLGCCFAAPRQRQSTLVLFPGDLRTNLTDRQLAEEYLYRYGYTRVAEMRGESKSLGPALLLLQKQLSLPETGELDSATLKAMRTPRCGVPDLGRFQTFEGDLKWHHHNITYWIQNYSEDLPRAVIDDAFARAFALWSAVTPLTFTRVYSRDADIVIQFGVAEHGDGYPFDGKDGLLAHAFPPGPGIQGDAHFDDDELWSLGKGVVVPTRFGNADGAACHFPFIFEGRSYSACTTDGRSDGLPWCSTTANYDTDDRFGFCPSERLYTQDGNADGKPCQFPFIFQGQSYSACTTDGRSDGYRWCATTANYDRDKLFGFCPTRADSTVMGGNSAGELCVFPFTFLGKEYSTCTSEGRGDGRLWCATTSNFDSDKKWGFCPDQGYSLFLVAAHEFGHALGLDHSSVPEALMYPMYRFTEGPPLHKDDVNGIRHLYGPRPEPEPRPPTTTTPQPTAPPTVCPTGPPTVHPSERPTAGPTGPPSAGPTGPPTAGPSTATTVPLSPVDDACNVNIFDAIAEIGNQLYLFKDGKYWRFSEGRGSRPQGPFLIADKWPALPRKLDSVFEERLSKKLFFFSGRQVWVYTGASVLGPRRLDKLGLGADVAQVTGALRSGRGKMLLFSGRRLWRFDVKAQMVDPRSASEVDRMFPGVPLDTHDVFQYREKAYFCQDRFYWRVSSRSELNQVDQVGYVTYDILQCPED

Consider `NC(=O)[C@H](Cc1ccccc1)NC(=O)[C@H](CS)NC(=O)COc1ccccc1`, for which the half-inhibitory concentration (IC50) at Interstitial collagenase was 0.598 µM; in assay [1], 0.034 µM.
The matching figures for `NC(=O)[C@H](Cc1ccccc1)NC(=O)[C@H](CS)NC(=O)c1ccc(-c2ccccc2)cc1`: 0.425 µM and 0.021 µM.
The matching figures for `NC(=O)[C@H](Cc1ccccc1)NC(=O)[C@H](CS)NC(=O)c1cccs1`: 0.105 µM and 0.049 µM.
The matching figures for `NC(=O)[C@H](Cc1ccccc1)NC(=O)[C@H](CS)NC(=O)Nc1ccccc1` ({NHPh-CO}-Cys-Phe-NH2): 0.04 µM and 0.011 µM.
Regarding `NC(=O)[C@H](Cc1ccccc1)NC(=O)[C@H](CS)NC(=O)c1ccc2[nH]nnc2c1`, the IC50 on Interstitial collagenase stood at 0.008 µM; in assay [1] it was 0.024 µM.
In the case of `NC(=O)[C@H](Cc1ccccc1)NC(=O)[C@H](CS)NC(=O)C(F)(F)F` (Tfa-Cys-Phe-NH2), the IC50 against Interstitial collagenase was 0.04 µM; in assay [1] it was above 1 µM.
The matching figures for `NC(=O)[C@H](Cc1ccccc1)NC(=O)[C@H](CS)NC(=O)c1ccoc1`: 0.171 µM and 0.084 µM.
The matching figures for `NC(=O)[C@H](Cc1ccccc1)NC(=O)[C@H](CS)NC(=O)c1ccsc1`: 0.13 µM and 0.082 µM.
On to `NC(=O)[C@H](Cc1cccnc1)NC(=O)[C@H](CC(=O)O)NC(=O)c1ccc2[nH]nnc2c1`, for which it took 0.453 µM to reach half-maximal inhibition against Interstitial collagenase (IC50). In other words, the sub-micromolar range.
With `CC(=O)N[C@@H](CS)C(=O)N[C@@H](Cc1cccnc1)C(N)=O` (Ac-Cys-[3Pal]-NH2), it took 4 µM to reach half-maximal inhibition against Interstitial collagenase (IC50). This IC50 is about 8.8-fold higher than that of the compound before.
On to `NC(=O)[C@H](Cc1ccccc1)NC(=O)[C@H](CS)NC(=O)c1ccncc1`, for which the IC50 amounted to 0.093 µM at Interstitial collagenase and 0.041 µM in assay [1].
Turning to `NC(=O)[C@H](Cc1ccccc1)NC(=O)[C@H](CS)NC(=O)c1cn[nH]c1`, the results for the IC50 (against Interstitial collagenase; in assay [1]) were 0.026 µM and 0.071 µM, respectively.
The matching figures for `NC(=O)[C@H](Cc1ccccc1)NC(=O)[C@H](CS)NC(=O)c1ccc(-n2cccc2)nc1`: 0.25 µM and 0.015 µM.
The matching figures for `NC(=O)[C@H](Cc1ccccc1)NC(=O)[C@H](CS)NC(=O)c1ccc(=O)[nH]c1`: 0.083 µM and 0.041 µM.
Turning to `NC(=O)[C@H](Cc1ccccc1)NC(=O)[C@H](CS)NC(=O)c1ccc2c(c1)OCO2`, the figures for the IC50 (against Interstitial collagenase; in assay [1]) were 0.215 µM and 0.019 µM, respectively.
As for `NC(=O)[C@H](Cc1cccnc1)NC(=O)[C@H](CS)NC(=O)c1cn[nH]c1`, the IC50 was found to be 0.026 µM at Interstitial collagenase and 0.071 µM in assay [1].
For the compound `CN(C)c1ccc(C(=O)N[C@@H](CS)C(=O)N[C@@H](Cc2ccccc2)C(N)=O)cc1`, the 50% inhibitory concentration (IC50) at Interstitial collagenase stood at 0.147 µM; in assay [1] it was 0.08 µM.
On Interstitial collagenase, `CC(=O)N[C@@H](CS)C(=O)N[C@@H](Cc1c[nH]c2ccccc12)C(N)=O` (Ac-Cys-Trp-NH2) had an IC50 of 5 µM.
In the case of `NC(=O)[C@H](Cc1cccs1)NC(=O)[C@H](CS)NC(=O)c1ccc2nn[nH]c2c1`, the IC50 against Interstitial collagenase is 0.034 µM; in assay [1], 0.102 µM.
For `CC(=O)N[C@@H](CS)C(=O)N[C@@H](Cc1ccccc1)C(N)=O` (Ac-Cys-Phe-NH2), at Interstitial collagenase, the IC50 is above 100 µM.
Regarding `NC(=O)[C@H](Cc1cccnc1)NC(=O)[C@H](CS)NC(=O)c1ccc2[nH]nnc2c1`, the IC50 was 0.012 µM against Interstitial collagenase and 0.042 µM in assay [1].
The compound `CC(=O)N[C@@H](CS)C(=O)N[C@H](C(N)=O)C(C)C` (Ac-Cys-Val-NH2) came in with an IC50 at Interstitial collagenase of 7 µM.
As for `COC(=O)[C@H](Cc1ccccc1)NC(=O)[C@H](CS)NC(=O)C(F)(F)F` (Tfa-Cys-Phe-OMe), the IC50 on Interstitial collagenase was 0.063 µM; in assay [1], above 1 µM.
At Interstitial collagenase, `CC(=O)N[C@@H](CS)C(=O)N[C@@H](Cc1cccs1)C(N)=O` (Ac-Cys-[2Thi]-NH2) returned an IC50 of 4 µM.
In the case of `NC(=O)[C@H](Cc1ccccc1)NC(=O)[C@H](CS)NC(=O)CCc1ccccc1` (Hydrocinnamoyl-Cys-Phe-NH2), the IC50 amounted to 3.5 µM on Interstitial collagenase and 0.038 µM in assay [1].

By IC50 is commonly meant the concentration at which inhibition is half-maximal.
